Measured values: US8614223B2, “Pyrimidine hydroxy amide compounds as protein deacetylase inhibitors and methods of use thereof” (Acetylon Pharmaceuticals, Inc., priority 2010, dated 2013)

Experiments:
HDAC6 = HDAC6 (Homo sapiens (Human), UniProt Q9UBN7); details: read-out: HDAC6 IC50
HDAC1 = HDAC1 (Homo sapiens (Human), UniProt Q13547); assay: HDAC enzyme assay, HDAC1; details: for HDAC1 fold over HDAC6 IC50 (selectivity for HDAC6): ratio HDAC1/HDAC6; for IC50: read-out: HDAC1 IC50
HDAC2 = HDAC2 (Homo sapiens (Human), UniProt Q92769); assay: HDAC enzyme assay, HDAC2; details: for HDAC2 fold over HDAC6 IC50 (selectivity for HDAC6): ratio HDAC2/HDAC6; for IC50: read-out: HDAC2 IC50
HDAC2, sequence (Q92769 whole entry): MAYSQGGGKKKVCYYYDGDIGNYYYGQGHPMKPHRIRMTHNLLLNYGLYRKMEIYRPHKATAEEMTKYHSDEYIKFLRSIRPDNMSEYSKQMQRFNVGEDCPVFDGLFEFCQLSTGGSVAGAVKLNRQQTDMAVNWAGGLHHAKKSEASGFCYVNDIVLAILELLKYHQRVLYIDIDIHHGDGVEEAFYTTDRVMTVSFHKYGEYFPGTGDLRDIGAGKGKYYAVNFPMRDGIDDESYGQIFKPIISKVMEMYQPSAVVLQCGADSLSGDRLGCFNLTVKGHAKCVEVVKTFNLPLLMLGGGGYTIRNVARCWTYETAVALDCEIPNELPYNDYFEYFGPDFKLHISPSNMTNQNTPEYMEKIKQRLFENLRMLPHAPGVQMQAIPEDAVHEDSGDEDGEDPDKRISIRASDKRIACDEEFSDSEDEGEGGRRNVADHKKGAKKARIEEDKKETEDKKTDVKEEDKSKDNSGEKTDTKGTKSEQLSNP

HDAC3 = HDAC3 (Homo sapiens (Human), UniProt O15379); assay: HDAC enzyme assay, HDAC3; details: for HDAC3 fold over HDAC6 IC50 (selectivity for HDAC6): ratio HDAC3/HDAC6; for IC50: read-out: HDAC3 IC50
HDAC3, sequence (O15379 whole entry): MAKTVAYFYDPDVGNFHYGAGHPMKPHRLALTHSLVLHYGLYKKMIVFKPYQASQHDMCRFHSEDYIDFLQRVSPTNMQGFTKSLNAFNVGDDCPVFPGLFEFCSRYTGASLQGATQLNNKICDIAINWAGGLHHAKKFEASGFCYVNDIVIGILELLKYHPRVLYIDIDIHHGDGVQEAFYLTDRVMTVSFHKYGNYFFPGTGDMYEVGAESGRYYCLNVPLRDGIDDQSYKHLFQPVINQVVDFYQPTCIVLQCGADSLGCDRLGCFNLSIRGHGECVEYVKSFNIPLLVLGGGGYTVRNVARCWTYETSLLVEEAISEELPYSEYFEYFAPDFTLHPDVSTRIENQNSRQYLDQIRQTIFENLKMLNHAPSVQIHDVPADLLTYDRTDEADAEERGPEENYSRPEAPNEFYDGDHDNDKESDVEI
HDAC3, sequence (Q9Y618 395-489 partner): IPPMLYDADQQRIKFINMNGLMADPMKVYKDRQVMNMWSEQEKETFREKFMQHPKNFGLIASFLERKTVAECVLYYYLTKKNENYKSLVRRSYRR

HDAC6, sequence (Q9UBN7 whole entry): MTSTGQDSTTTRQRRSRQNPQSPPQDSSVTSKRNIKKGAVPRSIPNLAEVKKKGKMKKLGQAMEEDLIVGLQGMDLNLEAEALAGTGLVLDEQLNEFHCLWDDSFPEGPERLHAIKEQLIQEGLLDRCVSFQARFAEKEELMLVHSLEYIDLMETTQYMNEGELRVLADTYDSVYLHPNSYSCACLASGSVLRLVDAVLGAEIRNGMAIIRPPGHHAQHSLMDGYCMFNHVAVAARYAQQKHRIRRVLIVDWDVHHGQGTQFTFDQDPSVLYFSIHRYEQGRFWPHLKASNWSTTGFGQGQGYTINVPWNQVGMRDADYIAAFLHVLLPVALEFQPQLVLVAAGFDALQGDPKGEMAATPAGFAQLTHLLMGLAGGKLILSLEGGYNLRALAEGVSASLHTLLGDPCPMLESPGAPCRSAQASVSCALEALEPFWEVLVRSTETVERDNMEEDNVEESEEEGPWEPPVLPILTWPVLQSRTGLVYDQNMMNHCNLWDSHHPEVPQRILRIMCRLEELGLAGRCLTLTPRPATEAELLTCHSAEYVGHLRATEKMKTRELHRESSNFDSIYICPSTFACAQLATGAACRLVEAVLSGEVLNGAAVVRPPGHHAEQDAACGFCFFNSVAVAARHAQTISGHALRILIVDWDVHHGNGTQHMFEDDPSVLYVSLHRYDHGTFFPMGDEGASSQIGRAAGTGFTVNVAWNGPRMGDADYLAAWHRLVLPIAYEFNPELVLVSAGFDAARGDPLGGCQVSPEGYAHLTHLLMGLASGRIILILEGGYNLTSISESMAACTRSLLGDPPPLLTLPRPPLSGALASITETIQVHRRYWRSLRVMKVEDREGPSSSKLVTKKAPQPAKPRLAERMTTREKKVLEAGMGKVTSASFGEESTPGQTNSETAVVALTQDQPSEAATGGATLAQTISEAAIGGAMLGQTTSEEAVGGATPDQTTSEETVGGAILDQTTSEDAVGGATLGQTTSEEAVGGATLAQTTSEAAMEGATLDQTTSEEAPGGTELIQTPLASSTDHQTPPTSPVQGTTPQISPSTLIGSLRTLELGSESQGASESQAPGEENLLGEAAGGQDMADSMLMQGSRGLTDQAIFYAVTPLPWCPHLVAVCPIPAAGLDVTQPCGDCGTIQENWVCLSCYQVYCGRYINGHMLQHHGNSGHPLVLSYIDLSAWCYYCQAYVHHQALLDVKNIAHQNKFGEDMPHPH
HDAC1, sequence (Q13547 whole entry): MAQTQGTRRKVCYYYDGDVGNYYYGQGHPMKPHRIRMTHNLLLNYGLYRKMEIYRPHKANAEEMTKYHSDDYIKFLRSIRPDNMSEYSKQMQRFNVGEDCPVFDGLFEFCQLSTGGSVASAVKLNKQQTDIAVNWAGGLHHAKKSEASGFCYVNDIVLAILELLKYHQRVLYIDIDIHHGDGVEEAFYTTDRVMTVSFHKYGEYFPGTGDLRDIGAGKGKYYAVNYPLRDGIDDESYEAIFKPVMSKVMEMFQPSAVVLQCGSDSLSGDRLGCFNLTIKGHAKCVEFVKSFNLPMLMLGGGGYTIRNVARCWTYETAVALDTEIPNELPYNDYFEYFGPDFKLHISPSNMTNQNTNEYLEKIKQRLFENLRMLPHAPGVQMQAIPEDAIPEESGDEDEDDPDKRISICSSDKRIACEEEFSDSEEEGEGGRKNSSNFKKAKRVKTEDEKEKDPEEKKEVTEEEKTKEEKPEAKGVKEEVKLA

IC50 (HDAC6) [nM] | HDAC1 fold over HDAC6 IC50 (selectivity for HDAC6) (HDAC1) | IC50 (HDAC1) [nM] | HDAC2 fold over HDAC6 IC50 (selectivity for HDAC6) (HDAC2) | IC50 (HDAC2) [nM] | HDAC3 fold over HDAC6 IC50 (selectivity for HDAC6) (HDAC3) | IC50 (HDAC3) [nM] | Compound
2 | (2.7x) | 60 | (3.7x) | 9 | (8x) | 19 | O=C(NO)c1cnc(NCc2ccc(-c3ccccc3)cc2)nc1 [Compound 107]
5 | (42.1x) | 219 | (60.3x) | 313 | (68.3x) | 355 | O=C(NO)c1cnc(NCc2ccccn2)nc1 [Compound 108]
4 | (79.5x) | 324 | (94.3x) | 385 | (206.7x) | 843 | O=C(NO)c1cnc(NC2(Cc3ccccc3)CC2)nc1 [Compound 109]
19 | (48x) | 911 | (40.5x) | 767 | (70x) | 1330 | O=C(NO)c1cnc(NC2c3ccccc3-c3ccccc32)nc1 [Compound 111]
1 | (3.6x) | 5 | (3.9x) | 6 | (5.9x) | 8 | O=C(NO)c1cnc(NC2(c3c(F)cccc3F)CC2)nc1 [Compound 124]
3 | (43.3x) | 140 | (48.9x) | 159 | (160.9x) | 521 | O=C(NO)c1cnc(NC2(c3ccccc3)CCC2)nc1 [Compound 130]
3 | (188x) | 594 | (152.9x) | 483 | (229.8x) | 727 | COc1ccccc1C1(Nc2ncc(C(=O)NO)cn2)CC1 [Compound 133]
7 | (22.4x) | 149 | (17.7x) | 118 | (51.8x) | 344 | O=C(NO)c1cnc(NC2(c3ccc(C(F)(F)F)cc3)CC2)nc1 [Compound 135]
7 | (8x) | 55 | (9x) | 62 | (18.5x) | 128 | O=C(NO)c1cnc(NC2(c3ccc(F)c(F)c3)CC2)nc1 [Compound 140]
6 | (3x) | 17 | (4x) | 23 | (11x) | 64 | Cc1cc(C2(Nc3ncc(C(=O)NO)cn3)CC2)ccc1F [Compound 142]
4 | (3.4x) | 12 | (5x) | 17 | (8.4x) | 29 | O=C(NO)c1cnc(NC2(c3cccc(F)c3F)CC2)nc1 [Compound 143]
3 | (7.9x) | 25 | (10.8x) | 34 | (18.3x) | 58 | O=C(NO)c1cnc(NC2(c3ccc(F)cc3Cl)CC2)nc1 [Compound 144]
3 | (182.9x) | 583 | (193.1x) | 615 | (677.2x) | 2160 | O=C(NO)c1cnc(NC2(c3ccc(F)cc3)CCCC2)nc1 [Compound 148]

Second part, the molecule before the results:

Compound | IC50 (HDAC6) [nM] | HDAC1 fold over HDAC6 IC50 (selectivity for HDAC6) (HDAC1) | IC50 (HDAC1) [nM] | HDAC2 fold over HDAC6 IC50 (selectivity for HDAC6) (HDAC2) | IC50 (HDAC2) [nM] | HDAC3 fold over HDAC6 IC50 (selectivity for HDAC6) (HDAC3) | IC50 (HDAC3) [nM]
CC1(Nc2ncc(C(=O)NO)cn2)CCCCC1 [Compound 110] | 41 | (34.5x) | 1410 | (39.9x) | 1630 | (84.7x) | 3460
COc1ccc(C2(Nc3ncc(C(=O)NO)cn3)CCCCC2)cc1 [Compound 122] | 20 | (44.8x) | 893 | (45x) | 898 | (197.8x) | 3940
O=C(NO)c1cnc(NC2(c3ccc(F)cc3F)CC2)nc1 [Compound 123] | 3 | (4.8x) | 13 | (4.3x) | 12 | (9.6x) | 26
O=C(NO)c1cnc(NC2(c3cccc(OC(F)(F)F)c3)CC2)nc1 [Compound 125] | 2 | (8.7x) | 18 | (9x) | 19 | (27.1x) | 57
O=C(NO)c1cnc(NC2(c3cc(C(F)(F)F)ccc3F)CC2)nc1 [Compound 126] | 2 | (3.2x) | 7 | (3.9x) | 9 | (9.8x) | 22
O=C(NO)c1cnc(NC2(c3ccc4c(c3)OCO4)CC2)nc1 [Compound 128] | 2 | (8.1x) | 16 | (8.9x) | 17 | (24.8x) | 49
COc1cc(OC)cc(C2(Nc3ncc(C(=O)NO)cn3)CC2)c1 [Compound 129] | 3 | (12.7x) | 43 | (15.4x) | 52 | (36.6x) | 124
O=C(NO)c1cnc(NC2(c3cc(F)cc(F)c3)CC2)nc1 [Compound 132] | 4 | (24.4x) | 95 | (24.4x) | 96 | (80.8x) | 316
O=C(NO)c1cnc(NC2(c3ccc(C(F)(F)F)c(F)c3)CC2)nc1 [Compound 137] | 4 | (7.1x) | 27 | (5.5x) | 21 | (18.5x) | 70
COc1ccc(C2(Nc3ncc(C(=O)NO)cn3)CC2)cc1OC [Compound 138] | 8 | (6.2x) | 50 | (6x) | 49 | (13.9x) | 113
COc1ccc(Cl)cc1C1(Nc2ncc(C(=O)NO)cn2)CC1 [Compound 139] | 4 | (90.9x) | 386 | (112.8x) | 479 | (184x) | 782
O=C(NO)c1cnc(NC2(c3cc(C(F)(F)F)cc(C(F)(F)F)c3)CC2)nc1 [Compound 145] | 6 | (18.1x) | 104 | (23.5x) | 135 | (66.6x) | 384
Cc1cc(C(F)(F)F)cc(C2(Nc3ncc(C(=O)NO)cn3)CC2)c1 [Compound 147] | 3 | (18.2x) | 64 | (20.9x) | 73 | (54x) | 189
O=C(NO)c1cnc(NC2(c3cccc(F)c3)CCOCC2)nc1 [Compound 149] | 4 | (80.1x) | 339 | (78x) | 330 | (312.9x) | 1320
O=C(NO)c1cnc(NC2(c3ccc(F)cc3)CCOCC2)nc1 [Compound 150] | 5 | (66.1x) | 320 | (68.4x) | 330 | (367.7x) | 1780
O=C(NO)c1cnc(NC2(c3cccc(F)c3)CCCC2)nc1 [Compound 151] | 3 | (176.6x) | 584 | (143.8x) | 476 | (414.9x) | 1370
COc1ccc(C2(Nc3ncc(C(=O)NO)cn3)CCCC2)cc1 [Compound 152] | 4 | (11.4x) | 248 | (10.1x) | 220 | (29.9x) | 649
